Holding throughout (format): binding
The target of test [1] is T1, adenylate kinase (AK_2+, AK) (Escherichia coli, UniProt P69441).
T1 construct: gene adk; full-length AK (214 residues) with C-terminal extension GKK plus Strep-tag WSHPQFEK kept; pET22b, E. coli BL21(DE3); single enzyme trapped in ClyA-AS nanopore
Briefly: single-molecule nanopore (ClyA-AS) recording, Hill fit of LID-closed fraction. Particulars: minor component; type II blockades (12 ± 6% of blockades, alternative conformer); Hill coefficient 1.7; 400 mM KCl, 15 mM Tris, 2 mM MgCl2, pH 7.5, 22 °C, -90 mV.

Test [2] deals with T1, adenylate kinase (AK_2+, AK). Described as above.
Test [3] has the same target. Briefly: single-molecule nanopore (ClyA-AS) recording, ligand-induced current levels M1-M4. The note with it: inhibitor; added cis or trans; 400 mM KCl, 15 mM Tris, 2 mM MgCl2, pH 7.5, 22 °C, -90 mV.

These results are taken from article PMC11582565, “Allostery can convert binding free energies into concerted domain motions in enzymes” (Nature Communications, 2024).

T1 sequence (P69441 whole entry): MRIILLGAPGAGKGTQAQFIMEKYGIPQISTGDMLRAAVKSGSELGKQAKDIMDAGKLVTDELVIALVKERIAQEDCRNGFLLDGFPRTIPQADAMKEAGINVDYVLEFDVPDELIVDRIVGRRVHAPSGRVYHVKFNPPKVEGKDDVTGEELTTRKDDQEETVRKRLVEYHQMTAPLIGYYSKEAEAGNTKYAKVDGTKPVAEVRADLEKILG

For the compound `Nc1ncnc2c1ncn2[C@@H]1O[C@H](COP(=O)(O)OP(=O)(O)O)[C@@H](O)[C@H]1O` [ADP], the dissociation constant (KD) – broadly, the concentration at which binding is half-saturated – in test [1] was found to be 123.2 ± 18.1 µM. The Kd (as a rule, the free concentration of one partner at which half of the binding sites on the other are occupied at equilibrium, for simple one-to-one binding) in test [2] was determined as 45.4 ± 1.6 µM. For `Nc1ncnc2c1ncn2[C@@H]1O[C@H](COP(=O)(O)OP(=O)(O)OP(=O)(O)OP(=O)(O)OP(=O)(O)OC[C@H]2O[C@@H](n3cnc4c(N)ncnc43)[C@H](O)[C@@H]2O)[C@@H](O)[C@H]1O` [Ap5A, P^1,P^5-Di-(adenosine-5’)-pentaphosphate], the “single-molecule nanopore (ClyA-AS) recording, ligand-induced current levels M1-M” value in test [3] is reported as “The addition of Ap5A to either the cis or trans side of the nanopore induced”.
